Data from patent US8809618B2, “Transgenic mouse for screening and for studies of the pharmacodynamics and pharmacokinetics of ligands acting on the oestrogen receptor and its intracellular receptors, and method for the preparation thereof” (T.O.P. (Transgenic Operative Products) S.R.L., priority 2000, dated 2014).
Entries after “also recorded” stand apart in the source; their conditions may differ. One block for each molecule: values may come before it.

Legend:
oestrogen receptors [1] = assay: Agonistic/antagonistic action of ER ligands: luciferase activity in tissues of line 2 ERE-luciferase transgenic mice; type: in vivo, mouse; details: line 2 mice; for effect on E2-dependent activation of luciferase expression in vivo: 250 μg/kg one hour before 50 μg/kg E2
Description: To verify the expression of the transgene in the different tissues and its inducibility by oestrogens, 4 independent experiments were carried out on 8 female individuals of each line (4 heterozygotic and 4 homozygotic). For each experiment, two female individuals were ovariectomised. With the aim of reducing the oestrogens present in the bloodstream of the ovariectomised animals below the detection limit, there was a wait of two weeks before the induction experiment was carried out; the individuals were then subjected to subcutaneous (s.c.) injection of mineral oil with or without 50 μg/kg of dissolved 17-β oestradiol; 16 hours after the treatment, the individuals were sacrificed and the following tissues were dissected out of them: uterus, liver, spleen, lung, heart, kidney, hypothalamus and brain. The protein extracts were obtained by disintegration of the tissue with a homogenizer in the presence of a phosphate lysis buffer consisting of 0.1 M KH2PO4, 0.1 M K2HPO4, 1 mM DTT, 4 mM EGTA and 4 mM EDTA at pH 7.8. The suspension was frozen and thawed three times, and centrifuged for 30 minutes at 13,000 g; the supernatant was collected and equal quantities of protein, measured by the colorimetric method of Bradford, were subjected to enzymatic testing to reveal the activity of the enzyme luciferase. The method for detection of the activity of the reporter was carried out with a kit by the procedure recommended by the producer (Sigma), mixing ca. 20 μg of protein extract with the luciferin substrate in the presence of 0.5 mM ATP and 30 mM DTT and measuring the […] emitted using a luminometer (Lumat BL 9500, Berthold). With reference to FIGS. 5 to 7 of the attached drawings, individuals were subcutaneously injected (s.c.) with 50 μg/Kg 17β-estradiol (E2) or with vehicle (vegetable oil) and sacrificed at 24 hours. Luciferase enzymatic activity was evaluated and plotted in the graph. The arbitrary units are obtained considering the luciferase activity in the uterus of control individuals=100.
By subcutaneous injection of the substance in the presence or in the absence of 17-β oestradiol it is in fact possible to compare the distribution and the intensity of expression of the luciferase gene in the various tissues and to compare it with the control or with the injection of 17-β oestradiol alone. The effect of in vivo administration of two known ER antagonists was investigated in line 2 of transgenic mice. […] Luciferase is expressed as fold induction obtained as the ratio between luciferase activity in ligands treated/control mice.

[2] = tested on: ER reporter in primary bone marrow cells; assay: Luciferase expression in primary bone marrow cells from transgenic mice; type: cell-based, mouse; details: 16 hours; for luciferase accumulation in the presence of 1 nM E2: 100 nM ligand plus 1 nM E2; for luciferase accumulation, ligand alone: E2 0.01-10 nM, ICI and T 100 nM, Prog and Dex 10 nM
Description: Two millions of bone marrow cells were suspended in phenol red-free RPMI 1640 with 10% stripped serum. […] Bars represent the average.+−.s.e.m. of 5 individual experiments each done in triplicate. *(P<0.01 as compared to the control), **(P<0.005 as compared to the control), ° (P<0.05 as compared to the T-treated); P were calculated with ANOVA followed by Scheffe test. […] As a control, we also tested progesterone and dexamethasone (10 nM).

oestrogen receptors [3] = assay: Xenooestrogen activity: luciferase activity in liver and brain of transgenic mice injected s.c. with DDT; type: in vivo, mouse; details: s.c. 5000 μg/ml
Description: (§1) To verify the expression of the transgene in the different tissues and its inducibility by oestrogens, 4 independent experiments were carried out on 8 female individuals of each line (4 heterozygotic and 4 homozygotic). For each experiment, two female individuals were ovariectomised. […] The suspension was frozen and thawed three times, and centrifuged for 30 minutes at 13,000 g; the supernatant was collected and equal quantities of protein, measured by the colorimetric method of Bradford, were subjected to enzymatic testing to reveal the activity of the enzyme luciferase. The method for detection of the activity of the reporter was carried out with a kit by the procedure recommended by the producer (Sigma), mixing ca. 20 μg of protein extract with the luciferin substrate in the presence of 0.5 mM ATP and 30 mM DTT and measuring the […] emitted using a luminometer (Lumat BL 9500, Berthold). […] Luciferase enzymatic activity was evaluated and plotted in the graph. […]

oestrogen receptor = assay: Time course of luciferase activity in bone and liver of transgenic mice after E2; type: in vivo, mouse; details: s.c. 50 μg/kg, sacrificed after 3, 6 or 16 hours
oestrogen receptors [4] = assay: Tissue distribution of E2-dependent luciferase induction in ovariectomised female transgenic mice; type: in vivo, mouse; details: 26 tissues, ovariectomised 2-month old females, s.c., 16 hours
Description: as §1
The pharmacodynamics of any compound acting via intracellular receptors can also be correctly predicted by the transgenic model of the invention. As an illustrative example, […] luciferase activity was measured in 26 different tissues from 2-month old female mice which had been ovariectomised 2 weeks prior to the experiment. […]

Molecule: 4-hydroxytamoxifen
agonist activity on luciferase expression in vivo (oestrogen receptors [1]; 250 μg/Kg alone, liver and brain): partial agonist activity | effect on E2-dependent activation of luciferase expression in vivo (oestrogen receptors [1]): blockade | effect on E2-dependent activation of luciferase expression in vivo (oestrogen receptors [1]; listed as tamoxifen): inhibits the E2-dependent activation of luciferase expression | luciferase accumulation in the presence of 1 nM E2 [2]: higher luciferase accumulation, yet the level reached was still lower than with E2 alone | luciferase accumulation, ligand alone [2]: significant increase in luciferase levels even though lower than E2 at the same concentration

Molecule: Clc1ccc(C(c2ccc(Cl)cc2)C(Cl)(Cl)Cl)cc1 [DDT]
persistence of luciferase induction (oestrogen receptors [3]): 72 h | time of maximal induction of luciferase activity (oestrogen receptors [3]; sacrificed at 3-72 hours, vs vehicle): 24 h

time of maximal luciferase accumulation (oestrogen receptor): 6 h
Molecule: C[C@]12CC[C@@H]3c4ccc(O)cc4CC[C@H]3[C@@H]1CC[C@@H]2O [E2, 17β-estradiol]
luciferase enzyme content in tissues compared to controls (oestrogen receptors [4]): induced an increase in the enzyme content compared to controls in oestrogen target organs | luciferase accumulation, ligand alone [2]: dose-dependent increase

Molecule: C[C@]12CC[C@@H]3c4ccc(O)cc4C[C@@H](CCCCCCCCC[S+]([O-])CCCC(F)(F)C(F)(F)F)[C@H]3[C@@H]1CC[C@@H]2O (some centres unmarked) [ICI 182,780]
effect on E2-dependent activation of luciferase expression in vivo (oestrogen receptors [1]): blockade; also recorded: inhibits the E2-dependent activation of luciferase expression | luciferase accumulation in the presence of 1 nM E2 [2]: blocked | luciferase accumulation, ligand alone [2]: did not sort [sic] any effect

Molecule: CC(=O)[C@H]1CC[C@H]2[C@@H]3CCC4=CC(=O)CC[C@]4(C)[C@H]3CC[C@]12C [progesterone]
luciferase accumulation, ligand alone [2]: did not have any effect
